Experimental findings from doi:10.1101/2021.07.28.21261232v1 (medrxiv, 2021) are described below.

A value given as a limit tells only on which side of the number the result lay.

The nature of one data set: in vitro. The conditions noted are these: human, microsomes.
Another data set has as its target Human Elastase. To be noted: pH 8.0, room temperature, 50 mM Tris, 100 mM NaCl, Brij 35.
For another data set, the target named is Human Thrombin (Homo sapiens, UniProt P00734).
A further data set concerns the target Bovine Chymotrypsin (Bos taurus, UniProt P00766).

For the compound `COc1cccc2[nH]c(C(=O)N[C@@H](CC(C)C)C(=O)N[C@@H](C[C@@H]3CCNC3=O)C(=O)CO)cc12` [compound 1, PF-00835231], the microsomal CLint in the data set “in vitro” worked out at 7.47 ± 0.88 µL/min/mg.
As for `COc1cccc2[nH]c(C(=O)N[C@@H](CC(C)C)C(=O)N[C@H](C#N)C[C@@H]3CCNC3=O)cc12` [compound 2, N-[(2S)-1-({(1S)-1-Cyano-2-[(3S)-2-oxopyrrolidin-3-yl]ethyl}amino)-4-methyl-1-oxopentan-2-yl]-4-methoxy-1H-indole-2-carboxamide], the microsomal CLint in “in vitro” stood at 34.4 ± 0.7 µL/min/mg.
As to `CC(C)[C@H](NS(C)(=O)=O)C(=O)N1C[C@H]2[C@@H]([C@H]1C(=O)N[C@@H](C[C@@H]1CCNC1=O)C(=O)c1nc3ccccc3s1)C2(C)C` [compound 4, (1R,2S,5S)-N-{(2S)-1-(1,3-Benzothiazol-2-yl)-1-oxo-3-[(3S)-2-oxopyrrolidin-3-yl]propan-2-yl}-6,6-dimethyl-3-[N-(methylsulfonyl)-L-valyl]-3-azabicyclo[3.1.0]hexane-2 carboxamide], the microsomal CLint in the data set “in vitro” came to 127 ± 3 µL/min/mg.
Turning to `CC(C)(C)[C@H](NC(=O)C(F)(F)F)C(=O)N1C[C@H]2[C@@H]([C@H]1C(=O)N[C@H](C#N)C[C@@H]1CCNC1=O)C2(C)C` [compound 6, (1R,2S,5S)-N-{(1S)-1-Cyano-2-[(3S)-2-oxopyrrolidin-3-yl]ethyl}-6,6-dimethyl-3-[3-methyl-N-(trifluoroacetyl)-L-valyl]-3-azabicyclo[3.1.0]hexane-2-carboxamide], the IC50 against Human Elastase, against Human Thrombin and against Bovine Chymotrypsin was more than 100 µM throughout.

The term microsomal CLint denotes the rate of metabolic loss divided by the concentration. The low end stands for greater metabolic stability, the high end for faster metabolism. One may read the IC50 as the concentration at which inhibition is half-maximal. A high value points to weaker potency in that assay.
